Data taken from US10851067B2, “Kv7 channel activators compositions and methods of use” (Knopp Biosciences LLC, priority 2018, dated 2020).
pEC50: −log10 of the molar value.

molecular target: Kv7.2/7.3 (Homo sapiens, UniProt O43525+O43526); assay: Kv7.2/7.3 Thallium Flux Assay; type: cell-based; set-up: host or cells: HEK cells, tetracycline-inducible expression; conditions: read-out: Kv7.2/7.3 Activity: EC50 of Kv7.2/Kv7.3 activation
Text: The Thallium Flux Assay is used as a surrogate indicator of potassium channel activity.
The experimental protocol was adapted from the FluxOR™ II Green Potassium Ion Channel Assay User Guide (Pub. No. MAN0016084, Invitrogen). Conditions were optimized for the Kv7.2/7.3 cell line.
The hKV7.2/7.3 cell line was obtained from Chantest (Cleveland, Ohio 44128) cat. #CT6147.
Kv7.2/7.3 cells were maintained in a media containing DMEM/F12; 50/50 (GIBCO cat. #11330), 10% Fetal Bovine Serum (FBS) (GIBCO cat. #26140), 100 units/mL Penicillin-Streptomycin (GIBCO cat. #15140), 0.005 mg/ml Blasticidin (SIGMA 15205), 0.5 mg/mL Geneticin (GIBCO cat. #10131), and 0.1 mg/mL Zeocin (GIBCO cat. #R25001). One day prior to experimentation, cells were plated in 96 well clear bottom plates (Corning cat. #353219) in a media without Blasticidin, Geneticin, or Zeocin. Channel expression was induced by adding tetracycline (Bioline cat. #BIO87030) at a final concentration of 10 ng/mL.
The test compound is diluted in a mixture of 0.1% DMSO/extracellular solution with an eight-point concentration range from 0.014 μM to 30 μM. Serial dilutions were made on a Biomek NXP (BECKMAN COULTER).
Measurement and Data Analysis:
A plate reader (Enspire, Perkin Elmer) is used to characterize the ion-channel modulating properties of novel compounds using an excitation wavelength of 475 nm and an emission wavelength of 530 nm. After a 15 sec baseline measurement, the stimulus buffer containing thallium and potassium is injected. A final endpoint measure is taken after 90 sec. Responses are normalized to positive control (retigabine, 30 µM max). Mean normalized responses at each concentration tested are fit to the standard Hill equation to generate an EC50 and maximal response.

Row | Structure (SMILES) | pEC50
1 | CC(C)(C)n1c(NC(=O)CC2CC(F)(F)C2(F)F)nc2cc(F)c(F)cc21 (single isomer, unassigned) [Example 558, N-(1-(tert-butyl)-5,6-difluoro-1H-benzo[d]imidazol-2-yl)-2-(2,2,3,3-tetrafluorocyclobutyl)acetamide] | 5.52 to 6.00
2 | CC1(n2c(NC(=O)CC3CC(F)(F)C3(F)F)nc3cc(F)c(F)c(F)c32)CCC1 (single isomer, unassigned) [Example 559, 2-(2,2,3,3-tetrafluorocyclobutyl)-N-(5,6,7-trifluoro-1-(1-methylcyclobutyl)-1H-benzo[d]imidazol-2-yl)acetamide] | > 6.00
3 | CC(C)(C)n1c(NC(=O)CC2CC(F)(F)C2(F)F)nc2c(F)cc(F)cc21 (single isomer, unassigned) [Example 560, N-(1-(tert-butyl)-4,6-difluoro-1H-benzo[d]imidazol-2-yl)-2-(2,2,3,3-tetrafluorocyclobutyl)acetamide] | > 6.00
4 | CC(C(=O)Nc1nc2c(F)cc(C#N)cc2n1C1(C)CCC1)C(C)(C)C(F)(F)F (single isomer, unassigned) [Example 562, N-(6-cyano-4-fluoro-1-(1-methylcyclobutyl)-1H-benzo[d]imidazol-2-yl)-4,4,4-trifluoro-2,3,3-trimethylbutanamide] | > 6.00
5 | CC1(n2c(NC(=O)CC(C)(C)C(F)(F)F)nc3c(F)cc(C#N)cc32)CCC1 [Example 486, N-(6-cyano-4-fluoro-1-(1-methylcyclobutyl)-1H-benzo[d]imidazol-2-yl)-4,4,4-trifluoro-3,3-dimethylbutanamide] | > 6.00
6 | CC(C)(C)CC(=O)Nc1nc2ccc(C3(O)CCC3)c(OC(F)(F)F)c2n1C1CCC1 [Example 487, N-(1-cyclobutyl-6-(1-hydroxycyclobutyl)-7-(trifluoromethoxy)-1H-benzo[d]imidazol-2-yl)-3,3-dimethylbutanamide] | > 6.00
7 | CC(C)(C)CC(=O)Nc1nc2ccc(C3(O)CCC3)c(C(F)(F)F)c2n1C1CCC1 [Example 490, N-(1-cyclobutyl-6-(1-hydroxycyclobutyl)-7-(trifluoromethyl)-1H-benzo[d]imidazol-2-yl)-3,3-dimethylbutanamide] | > 6.00
8 | CC(C)(O)c1ccc2nc(NC(=O)CC3CC(F)(F)C3(F)F)n(C3(C)CCC3)c2c1 (stereo not shown) [Example 491, N-(6-(2-hydroxypropan-2-yl)-1-(1-methylcyclobutyl)-1H-benzo[d]imidazol-2-yl)-2-(2,2,3,3-tetrafluorocyclobutyl)acetamide] | > 6.00
9 | CC(C)(C)CC(=O)Nc1nc2c(F)cc(C#N)cc2n1C1(C)CCC1 [Example 495, N-(6-cyano-4-fluoro-1-(1-methylcyclobutyl)-1H-benzo[d]imidazol-2-yl)-3,3-dimethylbutanamide] | > 6.00
10 | CC(C)(C)CC(=O)Nc1nc2ccc(C#N)c(OC(F)(F)F)c2n1C1CCC1 [Example 498, N-(6-cyano-1-cyclobutyl-7-(trifluoromethoxy)-1H-benzo[d]imidazol-2-yl)-3,3-dimethylbutanamide] | > 6.00
11 | CC(C)(C)CC(=O)Nc1nc2ccc(C(C)(C)O)c(OC(F)(F)F)c2n1C1CCC1 [Example 501, N-(1-cyclobutyl-6-(2-hydroxypropan-2-yl)-7-(trifluoromethoxy)-1H-benzo[d]imidazol-2-yl)-3,3-dimethylbutanamide] | 5.52 to 6.00
12 | CC(C)(O)c1cc(F)c2nc(NC(=O)C3(CC(F)F)CC3)n(C3CCC3)c2c1 [Example 502, N-(1-cyclobutyl-4-fluoro-6-(2-hydroxypropan-2-yl)-1H-benzo[d]imidazol-2-yl)-1-(2,2-difluoroethyl)cyclopropane-1-carboxamide] | 5.00 to 5.52
13 | CC(C)(O)c1ccc2nc(NC(=O)Cc3ccc(F)cc3F)n(C3(C)CCC3)c2c1 [Example 505, 2-(2,4-difluorophenyl)-N-(6-(2-hydroxypropan-2-yl)-1-(1-methylcyclobutyl)-1H-benzo[d]imidazol-2-yl)acetamide] | > 6.00
14 | CC(C)(C)CC(=O)Nc1nc2ccc(C#N)c(C(F)(F)F)c2n1C1CCC1 [Example 507, N-(6-cyano-1-cyclobutyl-7-(trifluoromethyl)-1H-benzo[d]imidazol-2-yl)-3,3-dimethylbutanamide] | > 6.00
15 | COc1cc(C#N)cc2c1nc(NC(=O)C13CCC(C1)C3)n2C(C)(C)C [Example 510, N-(1-(tert-butyl)-6-cyano-4-methoxy-1H-benzo[d]imidazol-2-yl)bicyclo[2.1.1]hexane-1-carboxamide] | 5.52 to 6.00
16 | CC(C)(O)c1ccc2nc(NC(=O)CC34CC(C3)C4)n(C3(C)CCC3)c2c1 [Example 511, 2-(bicyclo[1.1,1]pentan-1-yl)-N-(6-(2-hydroxypropan-2-yl)-1-(1-methylcyclobutyl)-1H-benzo[d]imidazol-2-yl)acetamide] | > 6.00
17 | COc1cc(C#N)cc2c1nc(NC(=O)CC1CC(F)(F)C1(F)F)n2C(C)(C)C (stereo not shown) [Example 514, N-(1-(tert-butyl)-6-cyano-4-methoxy-1H-benzo[d]imidazol-2-yl)-2-(2,2,3,3-tetrafluorocyclobutyl)acetamide] | > 6.00
18 | CC(C)(C)CC(=O)Nc1nc2cccc(OC(F)(F)F)c2n1C1CCC1 [Example 516, N-(1-cyclobutyl-7-(trifluoromethoxy)-1H-benzo[d]imidazol-2-yl)-3,3-dimethylbutanamide] | > 6.00

Next, values leading:

Row | pEC50 | Structure (SMILES)
19 | > 6.00 | CC(C(=O)Nc1nc2c(F)cc(C#N)c(F)c2n1C1(C)CCC1)C1(C(F)(F)F)CC1 (single isomer, unassigned) [Example 543, N-(6-cyano-4,7-difluoro-1-(1-methylcyclobutyl)-1H-benzo[d]imidazol-2-yl)-2-(1-(trifluoromethyl)cyclopropyl)propanamide]
20 | > 6.00 | CC(C(=O)Nc1nc2c(F)cc(C#N)c(F)c2n1C1(C)CCC1)C1(C(F)(F)F)CC1 (single isomer, unassigned) [Example 544, N-(6-cyano-4,7-difluoro-1-(1-methylcyclobutyl)-1H-benzo[d]imidazol-2-yl)-2-(1-(trifluoromethyl)cyclopropyl)propanamide]
21 | > 6.00 | CC1(n2c(NC(=O)CC3CC(F)(F)C3(F)F)nc3cc(F)cc(C#N)c32)CCC1 (single isomer, unassigned) [Example 545, N-(7-cyano-5-fluoro-1-(1-methylcyclobutyl)-1H-benzo[d]imidazol-2-yl)-2-(2,2,3,3-tetrafluorocyclobutyl)acetamide]
22 | > 6.00 | CC1(n2c(NC(=O)CC3CC(F)(F)C3(F)F)nc3cc(F)cc(C#N)c32)CCC1 (single isomer, unassigned) [Example 546, N-(7-cyano-5-fluoro-1-(1-methylcyclobutyl)-1H-benzo[d]imidazol-2-yl)-2-(2,2,3,3-tetrafluorocyclobutyl)acetamide]
23 | > 6.00 | CC1(n2c(NC(=O)CC3CC(F)(F)C3(F)F)nc3c(F)ccc(C#N)c32)CCC1 (single isomer, unassigned) [Example 548, N-(7-cyano-4-fluoro-1-(1-methylcyclobutyl)-1H-benzo[d]imidazol-2-yl)-2-(2,2,3,3-tetrafluorocyclobutyl)acetamide]
24 | > 6.00 | CC1(n2c(NC(=O)CC3CC(F)(F)C3(F)F)nc3ccc(F)c(Br)c32)CCC1 (single isomer, unassigned) [Example 549, N-(7-bromo-6-fluoro-1-(1-methylcyclobutyl)-1H-benzo[d]imidazol-2-yl)-2-(2,2,3,3-tetrafluorocyclobutyl)acetamide]
25 | > 6.00 | N#Cc1ccc2nc(NC(=O)CC3CC(F)(F)C3(F)F)n(-c3ccc(F)cc3)c2c1 (single isomer, unassigned) [Example 551, N-(6-cyano-1-(4-fluorophenyl)-1H-benzo[d]imidazol-2-yl)-2-(2,2,3,3-tetrafluorocyclobutyl)acetamide]
26 | > 6.00 | COc1cc(C#N)cc2c1nc(NC(=O)CC1CC(F)(F)C1(F)F)n2C1(C)CCC1 (single isomer, unassigned) [Example 553, N-(6-cyano-4-methoxy-1-(1-methylcyclobutyl)-1H-benzo[d]imidazol-2-yl)-2-(2,2,3,3-tetrafluorocyclobutyl)acetamide]
27 | > 6.00 | CC(C(=O)Nc1nc2ccc(Cl)c(F)c2n1C1(C)CCC1)C1(C(F)(F)F)CC1 (single isomer, unassigned) [Example 556, N-(6-chloro-7-fluoro-1-(1-methylcyclobutyl)-1H-benzo[d]imidazol-2-yl)-2-(1-(trifluoromethyl)cyclopropyl)propanamide]
28 | > 6.00 | CC(C)(C)n1c(NC(=O)CC2CC(F)(F)C2(F)F)nc2cc(F)c(F)cc21 (single isomer, unassigned) [Example 557, N-(1-(tert-butyl)-5,6-difluoro-1H-benzo[d]imidazol-2-yl)-2-(2,2,3,3-tetrafluorocyclobutyl)acetamide]
